Data as given in paper PMC10154249, “Unique progerin C-terminal peptide ameliorates Hutchinson–Gilford progeria syndrome phenotype by rescuing BUBR1” (Nature Aging, 2023).

Experiments:
HGPS cells = experiment: Cellular uptake of FITC-modified UPCP; assay type: cell-based, human
Protocol: Fibroblasts from patients with HGPS were obtained from The Progeria Research Foundation Cell and Tissue Bank (http://www.progeriaresearch.org). The following fibroblasts were used: HGADFN003, HGADFN167, HGMDFN090 and HGFDFN168. Human dermal fibroblasts (GM00038 and AG09602) were obtained from Coriell Cell Repository (https://catalog.coriell.org). These cells were characterized by DNA fingerprinting and isozyme detection and were tested by a MycoBlue Mycoplasma Detector (Vazyme Biotech) to exclude mycoplasma contamination before the experiments. […] HGADFN003, HGADFN167, HGMDFN090, HGFDFN168, GM00038 and AG09602 were cultured in DMEM medium with 15% (v/v) fetal bovine serum (VivaCell). […] For bleomycin-induced senescence, IMR90 cells were incubated with the culture medium containing 20 μg ml^–1 Bleomycin (Selleck, catalog no. S1214) for 2 h and analyzed 10 days later, or as otherwise indicated. For doxorubicin-induced senescence, IMR90 cells were treated twice with 100 nM Doxorubicin (Selleck, catalog no. S1208) with a 2 day interval and analyzed 10 days later, or as otherwise indicated. For ionizing radiation (IR)-induced senescence, IMR90 cells were exposed to 10 Gy Gamma rays, and analyzed 10 days later, or as otherwise indicated, the control IMR90 cells were mock irradiated. […]

PTBP1–BUBR1 mRNA 3′-UTR = experiment: RIP assay of PTBP1 and BUBR1 mRNA 3′-UTR in HEK-293T cells; assay type: cell-based; conditions: for PTBP1 enrichment on BUBR1-3'UTR (2-ΔΔCt): Fig. 4n, PTBP1+progerin+UPCP, P=0.0491 vs PTBP1+progerin
Protocol: RIP and RNA pulldown assays were performed as previously described. The RIP experiment was carried out using the EZ-Magna RIP Kit (Millipore, catalog no. 17-701). The coprecipitated RNAs were extracted through Trizol reagent and detected by RT-PCR. The primer sequences for PCR, synthesized by Comate Bioscience, were as follows:
BUBR1-3′UTR_fwd (5′-[…]-3′) and BUBR1-3′UTR_rev (5′- […]-3′).

[1] = tested on: BubR1 in Lmna^G609G/G609G mice; experiment: IHC of BubR1 in tissues of Lmna^G609G/G609G mice; assay type: in vivo, mouse; design: key to BubR1 IHC score: intensity score (0-3) × positive-cell score (0-4); range 0-12; conditions: 20 mg kg^–1 i.p. every other day
Protocol: (§1) For UPCP injection, 14-day-old Lmna^G609G/G609G mice were injected intraperitoneally with either PBS or UPCP (20 mg kg^–1, every other day) and wild-type mice were injected with PBS. All phenotypic analyses were performed after 12 weeks of treatment with UPCP. Bodyweight and lifespan were monitored after UPCP treatment. The survival rate was analyzed by the Kaplan–Meier method. We only included mice that were of sufficient bodyweight at the start of the experiment, typically at least 80% of the average littermate weight of the same sex and genotype. All animals meeting criteria for inclusion were then divided randomly into three groups according to genotype (Lmna^+/+, Lmna^G609G/G609G-Mock and Lmna^G609G/G609G-UPCP).
(§2) For histological analyses, mice of the indicated genotypes were perfused with PBS, then with 4% paraformaldehyde (PFA). Whole organs were incubated in 4% PFA at 4 °C for 16 h. All samples were paraffin embedded and sectioning by Servicebio. Subsequently, the tissues were deparaffinized and rehydrated before hematoxylin-eosin (HE) or Masson staining or immunohistochemistry (IHC). HE staining was performed using an HE Kit (Absin, catalog no. abs9217), and Masson staining was performed using Masson’s Trichrome Stain Kit (Absin, catalog no. abs9347) according to the manufacturer’s instructions. The thickness of the layers or the areas of fibrosis in the tissues were calculated using ImageJ software by a blinded investigator. For IHC, the sections were completed by the Servicebio. The images were acquired by a microscope (Leica DMi8) and analyzed with Leica Application Suite X v.3.6.0.24 (Leica). For BubR1, cytoplasmic staining in cells was scored on the intensity of staining and the proportion of positive cells by a blinded investigator. The intensity of the staining was graded as 0 (negative, no color), 1 (low positive, light yellow), 2 (positive, brown yellow) or 3 (high positive, brown), and the number of positive cells was graded as 0 (<5%), 1 (5–25%), 2 (25–50%), 3 (51–75%) or 4 (>75%). The final score was defined as staining number score multiplied by staining color score. For lamin B1, p21 or IL-6, the proportion of positive cells was used to quantify the expression of protein in tissues by a blinded investigator.

[2] = tested on: lamin B1, p21 and IL-6 in skin of Lmna^G609G/G609G mice; experiment: IHC of lamin B1, p21 and IL-6 in skin of Lmna^G609G/G609G mice; assay type: in vivo, mouse; conditions: for p21 positive cells / IL-6 positive cells / LaminB1 positive cells: LmnaG609G/G609G+UPCP; for p21 positive cells: P=0.0003 vs LmnaG609G/G609G-Mock; for IL-6 positive cells: P=0.0012 vs LmnaG609G/G609G-Mock; for LaminB1 positive cells: P=0.0142 vs LmnaG609G/G609G-Mock
Protocol: as §1, §2

[3] = skin, 20 mg kg^–1 i.p. every other day

H-YGRKKRRQRRRYNLRSRTVLCGTCGQPADKASASGSGAQSPQNCSIM-OH (cysteines drawn unpaired) [UPCP, unique progerin C-terminal peptide]
time to cellular uptake (HGPS cells): ≤ 2 h | PTBP1 enrichment on BUBR1-3'UTR (2-ΔΔCt) (PTBP1–BUBR1 mRNA 3′-UTR; replicate 1): 9.032 | PTBP1 enrichment on BUBR1-3'UTR (2-ΔΔCt) (PTBP1–BUBR1 mRNA 3′-UTR; replicate 2): 10.1759 | PTBP1 enrichment on BUBR1-3'UTR (2-ΔΔCt) (PTBP1–BUBR1 mRNA 3′-UTR; replicate 3): 11.8972 | binding of PTBP1 to BUBR1 mRNA 3ʹ-UTR (PTBP1–BUBR1 mRNA 3′-UTR; RIP and RNA pulldown, HEK-293T with or without UPCP): promoted PTBP1 to bind | BubR1 IHC score ([1]; aorta, No. 1): 7 | BubR1 IHC score ([1]; aorta, No. 2): 8.4 | BubR1 IHC score ([1]; aorta, No. 3): 12 | BubR1 IHC score ([1]; aorta, No. 4): 8.6 | BubR1 IHC score ([1]; aorta, No. 5): 8 | BubR1 IHC score ([1]; aorta, No. 6): 6 | BubR1 IHC score ([1]; lung, No. 1): 1 | BubR1 IHC score ([1]; lung, No. 2): 2 | BubR1 IHC score ([1]; lung, No. 3): 2.4 | BubR1 IHC score ([1]; lung, No. 4): 1.2 | BubR1 IHC score ([1]; lung, No. 5): 1.4 | BubR1 IHC score ([1]; lung, No. 6): 1.2 | BubR1 IHC score ([1]; skin, No. 1): 10.4 | BubR1 IHC score ([1]; skin, No. 2): 8 | BubR1 IHC score ([1]; skin, No. 3): 5.6 | BubR1 IHC score ([1]; skin, No. 4): 7.2 | BubR1 IHC score ([1]; skin, No. 5): 12 | BubR1 IHC score ([1]; skin, No. 6): 12 | BubR1 expression ([1]; skin, esophagus, lung and spleen): increased the expression of BubR1 | BubR1 IHC score ([1]; spleen, No. 1): 7.6 | BubR1 IHC score ([1]; spleen, No. 2): 6.8 | BubR1 IHC score ([1]; spleen, No. 3): 6 | BubR1 IHC score ([1]; spleen, No. 4): 7.8 | BubR1 IHC score ([1]; spleen, No. 5): 7.6 | BubR1 IHC score ([1]; spleen, No. 6): 7.2 | p21 positive cells ([2]; replicate 1): 0.2237 | IL-6 positive cells ([2]; replicate 1): 0.4348 | LaminB1 positive cells ([2]; replicate 1): 0.5254 | p21 positive cells ([2]; replicate 2): 0.3636 | IL-6 positive cells ([2]; replicate 2): 0.5192 | LaminB1 positive cells ([2]; replicate 2): 0.7647 | p21 positive cells ([2]; replicate 3): 0.2043 | IL-6 positive cells ([2]; replicate 3): 0.5517 | LaminB1 positive cells ([2]; replicate 3): 0.3729 | p21 positive cells ([2]; replicate 4): 0.2308 | IL-6 positive cells ([2]; replicate 4): 0.5702 | LaminB1 positive cells ([2]; replicate 4): 0.6429 | p21 positive cells ([2]; replicate 5): 0.3175 | IL-6 positive cells ([2]; replicate 5): 0.5897 | LaminB1 positive cells ([2]; replicate 5): 0.6739 | p21 positive cells ([2]; replicate 6): 0.1875 | IL-6 positive cells ([2]; replicate 6): 0.375 | LaminB1 positive cells ([2]; replicate 6): 0.598 | number of lamin B1 positive cells [2, 3]: increase the number of lamin B1 positive cells | p21 and IL-6 expression [2, 3]: reduce p21 and IL-6 expression in the skin
